The source of these data is ChEMBL document CHEMBL1149992 (Bioorg Med Chem Lett, 1997).

SMILES strings stand for the structures.

In assay [1] the target is T1, Acetylcholinesterase (Homo sapiens, UniProt P22303).
Description: Compound was tested in vitro for inhibitory activity against Acetylcholinesterase
Assay [2] deals with T2, Acetylcholinesterase (Rattus norvegicus, UniProt P37136).
T2 sequence (P37136 whole entry): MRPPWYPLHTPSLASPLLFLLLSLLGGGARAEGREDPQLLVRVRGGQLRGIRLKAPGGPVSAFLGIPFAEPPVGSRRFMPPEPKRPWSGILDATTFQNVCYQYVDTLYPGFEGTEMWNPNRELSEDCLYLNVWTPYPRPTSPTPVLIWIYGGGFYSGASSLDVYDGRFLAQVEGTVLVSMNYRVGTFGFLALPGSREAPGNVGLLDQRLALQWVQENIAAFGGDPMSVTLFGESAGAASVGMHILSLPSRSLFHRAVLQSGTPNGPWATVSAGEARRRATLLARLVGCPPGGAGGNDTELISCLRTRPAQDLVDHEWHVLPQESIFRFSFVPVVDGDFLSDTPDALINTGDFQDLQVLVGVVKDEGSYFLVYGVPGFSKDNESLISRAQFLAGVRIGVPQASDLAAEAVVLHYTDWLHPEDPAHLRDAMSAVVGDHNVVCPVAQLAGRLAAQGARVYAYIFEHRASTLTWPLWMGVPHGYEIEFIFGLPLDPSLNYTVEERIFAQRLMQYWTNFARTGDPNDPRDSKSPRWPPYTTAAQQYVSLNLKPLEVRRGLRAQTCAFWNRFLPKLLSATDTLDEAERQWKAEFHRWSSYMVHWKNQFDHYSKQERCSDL
Description: Compound was tested in vitro for inhibitory activity against Acetylcholinesterase in rat cortex

For assay [3], the target named is T1, Acetylcholinesterase. Description: In vitro selectivity towards Acetylcholinesterase relative to compound 1.
Assay [4] deals with Butyrylcholinesterase (Rattus norvegicus, UniProt Q9JKC1).
Sequence of Butyrylcholinesterase (Q9JKC1 whole entry): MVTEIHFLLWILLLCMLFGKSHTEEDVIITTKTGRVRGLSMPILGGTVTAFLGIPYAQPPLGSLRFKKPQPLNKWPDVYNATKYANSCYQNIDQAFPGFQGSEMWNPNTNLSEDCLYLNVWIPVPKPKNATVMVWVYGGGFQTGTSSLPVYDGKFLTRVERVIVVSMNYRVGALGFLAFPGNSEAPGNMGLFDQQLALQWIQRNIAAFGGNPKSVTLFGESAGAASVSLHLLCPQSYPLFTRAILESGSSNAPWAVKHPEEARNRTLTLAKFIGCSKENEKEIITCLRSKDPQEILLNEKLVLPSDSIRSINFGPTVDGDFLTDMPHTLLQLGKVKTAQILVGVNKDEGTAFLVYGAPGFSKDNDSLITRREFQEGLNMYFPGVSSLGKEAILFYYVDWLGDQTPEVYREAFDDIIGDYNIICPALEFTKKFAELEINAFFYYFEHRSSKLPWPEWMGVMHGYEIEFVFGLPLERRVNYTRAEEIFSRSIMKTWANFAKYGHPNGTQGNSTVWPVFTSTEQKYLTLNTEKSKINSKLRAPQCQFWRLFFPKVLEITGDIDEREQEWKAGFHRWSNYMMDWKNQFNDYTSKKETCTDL
Description: Compound was tested in vitro for inhibitory activity against Butyrylcholinesterase

T1 sequence (P22303 whole entry): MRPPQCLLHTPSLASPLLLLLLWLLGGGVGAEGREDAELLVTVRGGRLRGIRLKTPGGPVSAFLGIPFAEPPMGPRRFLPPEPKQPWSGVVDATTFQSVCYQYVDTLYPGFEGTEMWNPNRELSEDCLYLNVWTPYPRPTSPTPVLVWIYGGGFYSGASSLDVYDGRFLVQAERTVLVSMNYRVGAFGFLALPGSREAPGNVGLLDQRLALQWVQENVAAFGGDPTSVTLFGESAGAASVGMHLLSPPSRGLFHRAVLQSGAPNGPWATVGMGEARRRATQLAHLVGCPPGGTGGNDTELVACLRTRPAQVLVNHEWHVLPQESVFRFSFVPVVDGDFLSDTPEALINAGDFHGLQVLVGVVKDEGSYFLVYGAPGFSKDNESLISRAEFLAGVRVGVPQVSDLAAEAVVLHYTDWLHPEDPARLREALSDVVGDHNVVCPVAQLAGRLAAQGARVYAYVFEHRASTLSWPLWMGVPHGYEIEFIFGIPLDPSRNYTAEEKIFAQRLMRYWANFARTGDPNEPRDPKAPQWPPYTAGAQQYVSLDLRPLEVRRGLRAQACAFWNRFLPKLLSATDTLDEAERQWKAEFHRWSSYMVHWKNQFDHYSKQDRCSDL

Usually IC50 stands for the point on the concentration scale where inhibition reaches its midpoint. A higher IC50 goes with a need for much substance. With `Nc1cc(-c2ccccc2)nc2ccccc12`, the values for the concentration for half-maximal inhibition (IC50) in assay [1], in assay [2] and in assay [4] were 11.5 µM, over 100 µM and 12 µM, respectively. The Relative Selectivity in assay [3] amounted to 4.86.

With `Nc1c2c(nc3ccccc13)-c1ccccc1CS2`, the IC50 in assay [1] was 18.6 µM; in assay [2], over 100 µM; in assay [4], 4.9 µM. In assay [3], this compound yielded a Relative Selectivity of 1.22.

Consider `Nc1c2c(nc3ccccc13)-c1ccccc1CO2`, for which the IC50 is 245 µM in assay [1], over 100 µM in assay [2] and 6.58 µM in assay [4]. Also, the Relative Selectivity in assay [3] came to 0.13.

Consider `Nc1c2c(nc3ccccc13)-c1ccccc1C2`, for which the IC50 was determined as 0.676 µM in assay [1], 0.48 µM in assay [2] and 4.67 µM in assay [4]. The Relative Selectivity in assay [3] was determined as 32.1.

Regarding `Nc1c2c(nc3ccccc13)-c1ccccc1CC2`, the 50% inhibitory concentration (IC50) was determined as 2.98 µM in assay [1], 4 µM in assay [2] and 1.18 µM in assay [4]. The Relative Selectivity in assay [3] came out at 1.83.
